Conditions: mouse, in vivo

IR signal in blood after IV injection: no signal was seen
Structure (SMILES): CCCCCCCCCCCCCCCCCCN1C(=CC=CC=CC=CC2=[N+](CCCCCCCCCCCCCCCCCC)c3ccccc3C2(C)C)C(C)(C)c2ccccc21.[I-] [free DIR, 1,1′-Dioctadecyl-3,3,3′,3′-Tetramethylindotricarbo-cyanine Iodide]
